Patent publication US8501680B2, “Antagonists against interaction of PF4 and RANTES” (RWTH Aachen, priority 2005, dated 2013)
Each block holds one sequence with its values, some of them ahead of it.

How the values were obtained:
[1] = test system: Mono Mac 6 cells on IL-1 activated HUVEC; arrest potentiated by RANTES and PF4; assay: Inhibition of monocyte arrest on activated endothelium under flow; assay type: cell-based, human; settings: 6 μM peptide, 60 nM RANTES and PF4, 1.5 dyn/cm2, adherent cells after 4 minutes
Description: Endothelial cells from the human umbilical cord (HUVEC, human umbilical vein endothelial cells, PromoCell, Heidelberg) were cultured in endothelial cell growth medium (PromoCell, Heidelberg) and used after two to four passages.
Monocytic Mono Mac 6 cells (MM6, DSMZ) were cultured in RPMI 1640 medium (PAA Laboratories, Pasching, Austria) with the addition of 10% fetal calf serum, 2 mM L-glutamine (Biowhittaker), 1 mM sodium pyruvate, 50 μg/mL gentamycin and 9 μg/mL insulin (MM6 medium). The cells were sown with a density of 2×10^5/mL in 2 mL MM6 medium in 24-well plates and cultured at 37° C. in a humid atmosphere with 5% CO2 for 3 to 4 days before being used for experiments.
The interaction of monocytic Mono Mac 6 cells on activated endothelial cells was investigated.
Petri dishes with confluent HUVEC cells layers activated with IL-113 (Interleukin 1(3, Peprotech, 10 ng/mL, 12 hours) were placed in a flow chamber. Mono Mac 6 cells (0.5×10^6 cells/mL) were resuspended in balanced Hank solution (HBSS with 10 mM HEPES (Gibco BRL), pH 7.3, 0.5% bovine serum albumin (Serva)) and kept on ice. Five minutes before the experiment, Ca^2+ and Mg^2+ were added to the monocytic MM6 cells to yield a final concentration of 1 mM and 60 nM of the chemokines RANTES (Peprotech, Rocky Hill, N.J., USA) and PF4 (ChromaTec, Greifswald), respectively, and 6 μM of the polypeptides of the sequence SEQ ID NO: 2 according to formula (2), the sequence SEQ ID NO: 3 according to formula (3) or a control peptide of the sequence SEQ ID NO: 14 according to formula (14) and then heated up to 37° C. Cells pretreated in this way were then perfused over endothelial cells at 1.5 dyn/cm^2 on a microscope of model IX 50 from Olympus. The number of monocytes that were adherent due to the interaction with the endothelial cells was determined after 4 minutes in various fields by image analysis of photographs by a video camera (3CCD, JVC) and recorder. The data were analyzed as the mean (n=5)±standard deviation (p<0.02) in comparison with a control.

[2] = target: T1, interaction of RANTES and PF4 (Homo sapiens, UniProt P02776+P13501); assay: Plasmon resonance (Biacore) study of inhibition of RANTES binding to immobilized biotinylated PF4
T1 construct: made in house; host or cells: chemical synthesis (t-Boc solid phase peptide synthesis and native chemical ligation); no expression host
T1 sequence (P13501 24-91): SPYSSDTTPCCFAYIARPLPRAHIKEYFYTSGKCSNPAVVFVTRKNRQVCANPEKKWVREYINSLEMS
T1 sequence (P02776 32-101): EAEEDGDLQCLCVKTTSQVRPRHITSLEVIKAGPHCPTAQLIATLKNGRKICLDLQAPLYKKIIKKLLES
Description: The plasmon resonance studies were performed using HBS-EP buffer (10 mM HEPES, 150 mM NaCl, 0.005% Tween 20, pH 7.4).
Two flow cells of a Cl chip (Biacore AB, Uppsala, Sweden) were activated by injection of 50 μL ethyl(dimethylaminopropyl)carbodiimide/N-hydroxysuccinimide (0.2M/0.05M, Pierce) and then 20 μL streptavidine (0.2 mg/mL, Sigma-Aldrich) was perfused over the activated surface. The surface was next inactivated by four successive injections of 20 μL […] (1M, pH 8, Sigma-Aldrich).
Biotinylated human PF4 (bPF4) at the N-terminus was chemically synthesized by means of t-Boc-based solid phase peptide synthesis and native chemical ligation of PF4 (Dawson, P. E., Kent, S. B. (2000), Annu. Rev. Biochem. 69:923-960, Hackeng, T. M., Griffin, J. H., Dawson, P. E. (1999), Proc. Natl. Acad. Sci. USA, vol. 96, pp. 10068-10073). The bPF4 was immobilized on the dextran surface of a Cl sensor chip by injecting 200 μg/mL bPF4 into HBS-EP through one of the flow chambers and recorded 240 resonance units (RU). The second flow chamber was not treated with bPF4 and served as the reference.
Binding of RANTES (0.5 μM, recombinant human RANTES, Peprotech, Rocky Hill, N.J., USA) or RANTES (0.5 μM) that had been preincubated with various concentrations (0 μM, 10 μM and 100 μM) of the polypeptide of the sequence SEQ ID NO: 3 according to formula (3) in HBS-EP buffer overnight at room temperature to bPF4 was determined by injection of 15 μL of the respective peptide/RANTES mixture and observation of the binding for 180 seconds. The coupling was determined and the measurements were performed in a Biacore 2000 apparatus (Biacore AB) at a flow rate of 5 μL/min. Sensor grams of the RANTES binding were corrected using the BIAevaluation 3.0 software (Biacore AB) to correct for nonspecific background signals and equilibrium resonance units (RU) were determined for each injection.
In another experiment under the same conditions as those described for example 1, the binding of RANTES (0.5 μM) or RANTES (0.5 μM) that had been preincubated with 0 μM, 10 μM, 50 μM and 100 μM of the polypeptide of the sequence SEQ ID NO: 3 according to formula (3), SEQ ID NO: 2 according to formula (2) or a control peptide of the sequence SEQ ID NO: 14 according to formula (14) as given below: […]

[3] = test system: atherosclerotic lesions in ApoE mice; assay: Mouse model of atherosclerosis (ApoE mice on high-fat diet); assay type: in vivo; settings: 50 μg intraperitoneal three times a week for 12 weeks
Description: The model for artherosclerosis [sic; atherosclerosis] was 9- to 12-week-old female ApoE litter-mate mice (The Jackson Lab, Bar Harbor, Me., USA). The mice were fed a high-fat diet (21% fat, Altromin® C1061) for 12 weeks. During this period of time, two groups of mice received intraperitoneal injections of 50 μg of the polypeptide of the sequence SEQ ID NO: 15 according to formula (15), administered three times a week, as indicated below:
(n=7 mice) in saline solution. An untreated group of mice (n=12) was used as additional controls.
The mice were sacrificed for histological examination. […] Blood samples were taken at the beginning and end of the experimental nutrition period. The white blood cell count was determined by hemocytometry and the sera were collected, the cholesterol using the Infinity cholesterol kits (Thermo Electron, Melbourne, Australia).
The extent of the atherosclerosis was determined at the aortic route and on thoracoabdominal aorta by staining lipid deposits using Oil Red O staining (N. R. Veillard, B. Kwak, G. Pelli, F. Mulhaupt, R. W. James, A. E. Proudfoot, F. Mach, Antagonism of RANTES receptors reduces atherosclerotic plaque formation in mice. Circ. Res. 2004; 94:253-61) and quantified by means of computerized image analysis (Diskus software, Hilgers, Aachen). Areas of atherosclerotic lesions were determined in 5 μm transverse sections through the heart and aortic root. The determination was performed for each aortic root on the basis of lipid stained areas of six sections a distance of 50 μm apart. The areas of atherosclerotic lesions were divided by the total surface area of the valve of each section. The thoracoabdominal aorta was opened along the ventral midline and the areas of the lesions were stained in an en-face preparation using Oil Red-O staining. The proportional amount of lipid deposit was calculated by dividing the stained area by the total thoracoabdominal surface area.

Sequence: CKEYFYTSGKCSNPAVVFVTRC [SEQ ID NO: 2]
inhibition of potentiation of monocyte arrest due to heterophilic interaction of RANTES and PF4 (in words) [1]: weaker

reduction of binding of RANTES to immobilized PF4 ([2]; RANTES 0.5 μM preincubated overnight with peptide at 100 μM, Example 1): up to 35%
inhibition of the interaction of RANTES and PF4 (in words) ([2]; RANTES 0.5 μM preincubated with 0, 10 and 100 μM peptide, Example 1): concentration-dependent inhibition
Sequence: CKEYFYTSGKSSNPGIVFITRC [SEQ ID NO: 3]
inhibition of potentiation of monocyte arrest due to heterophilic interaction of RANTES and PF4 [1]: up to 80%
inhibition of the interaction of RANTES and PF4 (comparison in words) ([2]; RANTES 0.5 μM preincubated with 10 μM, 50 μM and 100 μM peptide, Example 2): definitely more effective than the polypeptide of the sequence SEQ ID NO: 2

Sequence: CKEYFYTSSKSSNLAVVFVTRC [SEQ ID NO: 15]
area of the aortic root showing plaque in relation to the total valve surface area [3]: significantly reduced
macrophage content in the lesions [3]: significantly reduced
development of atherosclerotic lesions in comparison with mice that received the control peptide ([3]; Oil Red O staining): significant reduction

Sequence: KEYFYTSGK [SEQ ID NO: 14, control peptide, reference compound]
inhibition of potentiation of monocyte arrest due to heterophilic interaction of RANTES and PF4 (in words) [1]: no significant inhibition
inhibition of the interaction of RANTES and PF4 (in words) ([2]; RANTES 0.5 μM preincubated with 100 μM peptide, Example 2): did not exhibit any detectable inhibition
